Data taken from patent US20060216253A1, “Whitening cosmetics containing morus alba extracts” (Time and Cross, Inc., priority 2005, published 2006).
pIC50: −log10 of the molar value.

Tests used:
[1] = system: melan-a cell line; experiment: Melanin production in melan-a cell line; type: cell-based; settings: melan-a cells; for Melanin production (%): 72 hr; for inhibitory effects on melanin production (in words): any of the concentrations assayed
Procedure: (§1) Melan-a cells were grown in 10 mL of RPMI 1640 medium supplemented with antibiotics, 10% fetal bovine serum (FBS), and 20 nM TPA. The cell suspension was inoculated in a 24-well plate (10^5 cells/mL) and the cells were allowed to completely adhere to the plate for 24 hr. Test samples dissolved in DMSO were added to the plate and incubated at 37° C. for 72 hr in a CO2 incubator. The culture medium was then thoroughly removed and the cells were isolated through trypsin treatment. The suspensions were then centrifuged for 5 min to collect cells, which were then treated with 5% trichloroacetic acid (TCA), stirred and centrifuged to precipitate the melanin. Melanin was washed with PBS and dissolved in 1 N NaOH. Absorbance at 475 nm was measured. Melanin concentration was determined from a standard concentration curve of synthetic melanin (SIGMA Co., USA).

[2] = target: Mushroom Tyrosinase; experiment: Inhibitory effects on mushroom tyrosinase (dopachrome, OD490, 15 min); type: biochemical; settings: for pIC50: 37° C., 15 min, L-tyrosine substrate
Procedure: (§2) L-Tyrosine, the substrate for tyrosinase, was dissolved in 50 mM sodium phosphate buffer (pH6.8) to prepare a solution of 0.1 mg/mL L-tyrosine. […] 100 μL of the L-tyrosine solution was introduced into a test tube, and 100 μL of 50 mM sodium phosphate buffer (pH6.8) with or without test samples were added thereto, and then 10 μL of 200 U/mL tyrosinase were mixed and incubated at 37° C. for 15 min.
The amount of dopachrome in the reaction mixture was determined spectrophotmetrically using absorbance measurement at 490 nm.

[3] = system: Mushroom Tyrosinase; experiment: Extended duration of mushroom tyrosinase inhibition (up to 24 hours); type: biochemical; settings: for reaction time until loss of tyrosinase inhibitory activity: 37° C., FIG. 3
Procedure: as §2
Using the experimental conditions described in the Mushroom Tyrosinase experiment described above, the reaction mixtures, containing various concentrations from 1 μg/mL to 50 μg/mL of the agents assayed, were incubated at 37° C. and spectrophotometric measurements of dopachrome were made at time intervals of up to 24 hours.

[4] = system: murine melanoma B16 cells; experiment: Cell viability (MTT assay) of murine melanoma B-16 cells; type: cell-based
Procedure: (§3) The melanoma cell line was grown in DMEM culture medium containing 4.5 g of glucose/l, 10% fetal bovine serum and 1% antibiotic agent and cultivated at 37° C. under a condition of 5% CO2. The cell suspension was inoculated in a 50 mL T-flask (3×10^5 cells/mL) and the cells were allowed to completely adhere to the plate for 24 hr. Then, test samples diluted in DMEM medium at concentrations of 1, 5, 10, 50, and 100 μg/mL were added to the cultivated cells, and the mixture was cultivated at 5% CO2 and 37° C. for 3 days. After cultivation, culture medium was thoroughly removed and the cells were isolated via trypsin treatment. The suspensions were then centrifuged for 5 min to collect cells. The obtained cells were treated with 5% trichloroacetic acid (TCA), stirred and centrifuged. The precipitated melanin was washed with phosphate buffered saline (PBS), and treated with 1 N NaOH to dissolve the melanin therein. Absorbance at 475 nm was measured. Melanin concentration was determined from a standard concentration curve of synthetic melanin (SIGMA Co., USA).
(§4) We used the MTT assay to determine the percentage of viable cells. After cultivation was completed, a solution of MTT was added to the cultivation solution and the mixture was incubated at 37° C. for 4 hr. After incubation, culture medium was thoroughly removed, and the residue was treated with DMSO (Dimethyl sulfoxide) and shaken for 20 min. The optical density at 580 nm was measured by an ELISA microplate reader.

[5] = system: murine melanoma B16 cells; experiment: Melanin production in murine melanoma B-16 cells; type: cell-based; settings: for Melanin production (%): B16 cells, 3 days; for inhibitory effects on melanin production (in words): any of the concentrations assayed
Procedure: as §3

[6] = system: melan-a cell line; experiment: Cell viability (MTT assay) of melan-a cell line; type: cell-based
Procedure: as §1, §4

[7] = system: melanocytes; experiment: Microscopic observation of pigmentation of confluent melanocyte monolayer; type: cell-based; settings: cell line not specified
Excerpt: The pigmentation of a confluent monolayer of melanocytes is visible microscopically, as the cells contain black melanin pigment.

Structure (SMILES)	Melanin production (%) ([1]; 1 μg/mL)	Melanin production (%) ([1]; 5 μg/mL)	Melanin production (%) ([1]; 10 μg/mL)	Melanin production (%) ([1]; 50 μg/mL)	Melanin production (%) ([1]; 100 μg/mL)	inhibitory effects on melanin production (in words) [1]	pIC50 [2]	reaction time until loss of tyrosinase inhibitory activity ([3]; 2 μg/mL)	reaction time until loss of tyrosinase inhibitory activity ([3]; 5 μg/mL)	Cell viability (%) ([4]; B16 cells, 1 μg/mL, MTT)	Cell viability (%) ([4]; B16 cells, 5 μg/mL, MTT)	Cell viability (%) ([4]; B16 cells, 10 μg/mL, MTT)	Cell viability (%) ([4]; B16 cells, 50 μg/mL, MTT)	Cell viability (%) ([4]; B16 cells, 100 μg/mL, MTT)	Melanin production (%) ([5]; 1 μg/mL)	Melanin production (%) ([5]; 5 μg/mL)	Melanin production (%) ([5]; 10 μg/mL)	Melanin production (%) ([5]; 50 μg/mL)	Melanin production (%) ([5]; 100 μg/mL)	inhibitory effects on melanin production (in words) ([5]; melanoma B-16 cells)	further results
OC[C@H]1O[C@@H](Oc2ccc(O)cc2)[C@H](O)[C@@H](O)[C@@H]1O [Arbutin, arbutin]	104.2 ± 3.2	103.7 ± 4.6	102.0 ± 5.7	100.4 ± 4.0	99.5 ± 7.2	did not show inhibitory effects on melanin production	3.84	loses activity in about one hour	loses activity in about one hour	102.4 ± 5.3	100.1 ± 7.8	98.5 ± 6.3	96.6 ± 8.0	93.2 ± 5.6	99.4 ± 2.1	100.8 ± 4.5	103.2 ± 1.9	98.9 ± 8.2	98.2 ± 6.9	did not show inhibitory effects on melanin production	Cell viability (%) ([6]; melan-a cells, 1 μg/mL, MTT): 104.2 ± 7.2%; Cell viability (%) ([6]; melan-a cells, 5 μg/mL, MTT): 105.2 ± 8.3%; Cell viability (%) ([6]; melan-a cells, 10 μg/mL, MTT): 100.7 ± 5.0%; Cell viability (%) ([6]; melan-a cells, 50 μg/mL, MTT): 98.3 ± 7.7%; Cell viability (%) ([6]; melan-a cells, 100 μg/mL, MTT): 93.8 ± 5.6%
O=c1cc(CO)occ1O [Kojic acid, kojic acid]	103.4 ± 5.4	100.5 ± 8.2	99.4 ± 7.1	95.1 ± 6.7	92.4 ± 8.0	did not show inhibitory effects on melanin production	–	loses activity within two hours	within five hours	95.2 ± 8.3	97.2 ± 7.6	96.2 ± 5.0	86.7 ± 3.4	81.7 ± 8.5	102.4 ± 4.7	98.2 ± 7.1	96.5 ± 3.7	94.1 ± 5.2	91.6 ± 7.1	did not show inhibitory effects on melanin production	Cell viability (%) ([6]; melan-a cells, 1 μg/mL, MTT): 95.3 ± 8.0%; Cell viability (%) ([6]; melan-a cells, 5 μg/mL, MTT): 96.8 ± 4.7%; Cell viability (%) ([6]; melan-a cells, 10 μg/mL, MTT): 95.1 ± 9.0%; Cell viability (%) ([6]; melan-a cells, 50 μg/mL, MTT): 84.2 ± 8.2%; Cell viability (%) ([6]; melan-a cells, 100 μg/mL, MTT): 80.5 ± 8.3%
Oc1cc(O)cc(/C=C/c2ccc(O)cc2O)c1 [Oxyresveratrol, oxyresveratrol]	95.1 ± 3.1	90.2 ± 6.4	88.5 ± 7.4	60.3 ± 9.1	20.6 ± 4.9	–	5.62	–	–	–	–	–	–	–	94.3 ± 7.7	90.8 ± 4.4	87.5 ± 6.9	57.3 ± 8.1	19.5 ± 8.2	–	reduction in melanin production ([1]; 100 μg/mL): 79.4%; inhibitory effect on mushroom tyrosinase (in words) ([2]; FIGS. 1 and 2): the most potent inhibitors of mushroom tyrosinase; inhibition of tyrosinase activity after 24 hours ([3]; 24 hours incubation, even at the lower concentrations tested, FIG. 4): about 90%; pIC50 ([3]; read-out: IC50 for tyrosinase inhibition after 24 hours incubation, 24 hours incubation): 5.59; Cell viability (%) ([4]; mouse, 3 days, 1 μg/mL): 99.5 ± 5.4%; Cell viability (%) ([4]; mouse, 3 days, 5 μg/mL): 97.4 ± 5.9%; Cell viability (%) ([4]; mouse, 3 days, 10 μg/mL): 95.3 ± 7.6%; Cell viability (%) ([4]; mouse, 3 days, 50 μg/mL): 66.2 ± 8.3%; Cell viability (%) ([4]; mouse, 3 days, 100 μg/mL): 23.1 ± 4.8%; reduction in melanin production ([5]; melanoma B-16 cells, 100 μg/mL): 80.5%; Cell viability (%) ([6]; mouse, 72 h, 1 μg/mL): 99.0 ± 5.8%; Cell viability (%) ([6]; mouse, 72 h, 5 μg/mL): 96.9 ± 7.9%; Cell viability (%) ([6]; mouse, 72 h, 10 μg/mL): 94.7 ± 4.2%; Cell viability (%) ([6]; mouse, 72 h, 50 μg/mL): 68.5 ± 5.5%; Cell viability (%) ([6]; mouse, 72 h, 100 μg/mL): 27.3 ± 7.8%; pigmentation of treated cells observed microscopically [7]: Reduced pigmentation
